Results from publication PMC2364952, “The Anti-Inflammatory Activity of Boron Derivatives in Rodents” (Metal-Based Drugs, 1995).
pIC50: −log10 of the molar value.

Experiments:
[1] = tested on: carrageenan-induced inflammation of paw; experiment: Carrageenan-induced paw edema, rats; format: in vivo, Sprague Dawley male rats; settings: for Rat Inflammatory: 8 mg/kg x 2, I.P., Table 2;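 on Rat Inflammatory: paw weight increase as percent of control rats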
[2] = tested on: acetic acid induced stretch reflex; experiment: Local analgesic screen (acetic acid writhing); format: in vivo, CF1 mice; settings: for Mice Writhing Reflex: 8 mg/kg I.P., Table 2; for reduction of the reflex action: mice, acetic acid induced local pain, 8 mg/kg
[3] = tested on: tail flick response to heat; experiment: Hot plate tail flick screen; format: in vivo, CF1 male mice; settings: for Mice Tail Flick: 8 mg/kg I.P., hot plate, Table 2; for tail flick assay time: mice, 8 mg/kg
[4] = tested on: carrageenan-induced pleural fluid; experiment: Anti-pleurisy screen; format: in vivo, Sprague Dawley male rats; settings: for pleurisy edema in rats: 8 mg/kg; for Rat Pleurisy: rats, 8 mg/kg I.P., 1 h before and 3 h after carrageenan, Table 2;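 on Rat Pleurisy: Pleural fluid volume as percent of control rats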
[5] = tested on: adjuvant (M. butyricum) arthritis; experiment: Chronic adjuvant arthritic screen; format: in vivo; settings: rats; for Rat Chronic Arthritis: 8 mg/kg/day I.P., Day 3 to Day 21, Table 2
[6] = biological target: acid phosphatase; experiment: Acid phosphatase activity, mouse macrophages; format: cell-based, mouse (J774 macrophages); settings: Table 3; read-out: IC50 Acid Phosphatase, Mouse Macrophage
[7] = tested on: cathepsin; experiment: Cathepsin activity, mouse macrophages; format: cell-based, mouse (J774 macrophages); settings: Table 3; read-out: IC50 Cathepsin, Mouse Macrophage
[8] = biological target: aryl sulphatase; experiment: Aryl sulfatase activity, mouse macrophages; format: cell-based, mouse (J774 macrophages); settings: Table 3; read-out: IC50 Aryl Sulfatase, Mouse Macrophage
[9] = tested on: trypsin; experiment: Trypsin proteolytic activity, mouse macrophages; format: cell-based, mouse (J774 macrophages); settings: Table 5; read-out: IC50 Trypsin, Mouse Macrophage
[10] = biological target: elastase; experiment: Elastase activity, mouse macrophages; format: cell-based, mouse (J774 macrophages); settings: Table 5; read-out: IC50 Elastase, Mouse Macrophage
[11] = tested on: trypsin; experiment: Trypsin activity, UMR-106 osteosarcoma cells; format: cell-based; settings: Table 6; read-out: IC50 Trypsin, Rat UMR-106 Bone Osteosarcoma
[12] = tested on: neutral cathepsin; experiment: Cathepsin activity, UMR-106 osteosarcoma cells; format: cell-based; settings: Table 6; read-out: IC50 Neutral Cathepsin, Rat UMR-106 Bone Osteosarcoma
[13] = tested on: elastase; experiment: Elastase activity, UMR-106 osteosarcoma cells; format: cell-based; settings: Table 6; read-out: IC50 Elastase, Rat UMR-106 Bone Osteosarcoma
[14] = biological target: prostaglandin cyclooxygenase; experiment: Prostaglandin cyclooxygenase activity, macrophages; format: cell-based, mouse (J774 macrophages); settings: Table 7
[15] = tested on: prostaglandin cyclooxygenase; experiment: Prostaglandin cyclooxygenase activity, Be Sal cells; format: cell-based, human (Be Sal osteofibrolytic cells); settings: Table 7; read-out: IC50 Prostaglandin Cyclooxygenase, Be Sal Osteofibro
[16] = biological target: T1, prostaglandin cyclooxygenase (Bos taurus, UniProt O62664); experiment: Prostaglandin synthetase from bovine seminal vesicles; format: biochemical; settings: Table 7; read-out: IC50 Prostaglandin Cyclooxygenase, Beef Seminal Vesicle
T1 construct: purified commercial prostaglandin synthetase from bovine seminal vesicles (Miles Research Products); purchased Miles Research Products; host or cells: bovine seminal vesicles (tissue preparation)
T1 sequence (O62664 25-600): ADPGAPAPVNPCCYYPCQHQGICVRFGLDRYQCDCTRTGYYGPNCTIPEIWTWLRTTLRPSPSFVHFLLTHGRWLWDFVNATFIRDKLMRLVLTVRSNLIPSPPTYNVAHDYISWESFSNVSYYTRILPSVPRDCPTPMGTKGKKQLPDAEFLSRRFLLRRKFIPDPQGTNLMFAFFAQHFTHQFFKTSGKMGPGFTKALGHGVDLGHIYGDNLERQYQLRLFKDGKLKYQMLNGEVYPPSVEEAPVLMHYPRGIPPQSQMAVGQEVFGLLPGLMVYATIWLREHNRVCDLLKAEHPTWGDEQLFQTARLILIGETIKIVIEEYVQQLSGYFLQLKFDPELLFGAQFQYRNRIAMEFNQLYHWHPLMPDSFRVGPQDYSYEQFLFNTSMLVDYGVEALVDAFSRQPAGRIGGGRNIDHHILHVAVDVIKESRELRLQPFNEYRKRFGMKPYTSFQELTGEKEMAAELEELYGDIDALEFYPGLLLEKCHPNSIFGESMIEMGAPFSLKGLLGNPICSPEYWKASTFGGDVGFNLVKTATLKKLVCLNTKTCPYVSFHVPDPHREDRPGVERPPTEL

[17] = biological target: T2, 5'-lipoxygenase (Mus musculus, UniProt P48999); experiment: 5'-Lipoxygenase activity, mouse macrophages; format: cell-based; settings: Table 7; read-out: IC50 5'-Lipoxygenase, Mouse Macrophage
T2 construct: endogenous in cells; host or cells: mouse macrophages (J774A as maintained above)
T2 sequence (P48999 1-674): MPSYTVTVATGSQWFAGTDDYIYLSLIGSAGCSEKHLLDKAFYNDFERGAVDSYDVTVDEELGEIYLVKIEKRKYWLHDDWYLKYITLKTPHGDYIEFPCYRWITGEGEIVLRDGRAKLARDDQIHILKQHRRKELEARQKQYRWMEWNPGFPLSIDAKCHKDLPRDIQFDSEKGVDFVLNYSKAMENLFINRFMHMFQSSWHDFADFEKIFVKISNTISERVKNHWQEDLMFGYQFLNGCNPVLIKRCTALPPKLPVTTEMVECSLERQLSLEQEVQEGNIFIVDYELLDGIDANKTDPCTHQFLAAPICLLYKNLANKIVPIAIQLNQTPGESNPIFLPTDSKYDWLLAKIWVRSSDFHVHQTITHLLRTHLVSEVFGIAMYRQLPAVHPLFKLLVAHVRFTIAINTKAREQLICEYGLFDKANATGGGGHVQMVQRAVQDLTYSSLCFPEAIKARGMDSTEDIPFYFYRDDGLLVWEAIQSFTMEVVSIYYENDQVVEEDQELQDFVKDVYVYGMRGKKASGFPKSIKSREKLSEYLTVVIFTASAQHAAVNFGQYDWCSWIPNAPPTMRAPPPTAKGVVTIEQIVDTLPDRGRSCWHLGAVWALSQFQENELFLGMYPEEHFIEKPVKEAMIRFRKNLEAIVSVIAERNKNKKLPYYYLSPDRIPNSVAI

[18] = biological target: T3, 5'-lipoxygenase (Homo sapiens, UniProt P09917); experiment: 5'-Lipoxygenase activity, human leukocytes; format: cell-based; settings: Table 7
T3 construct: endogenous in cells; host or cells: RMPI 1788 human leukocytes
T3 sequence (P09917 1-674): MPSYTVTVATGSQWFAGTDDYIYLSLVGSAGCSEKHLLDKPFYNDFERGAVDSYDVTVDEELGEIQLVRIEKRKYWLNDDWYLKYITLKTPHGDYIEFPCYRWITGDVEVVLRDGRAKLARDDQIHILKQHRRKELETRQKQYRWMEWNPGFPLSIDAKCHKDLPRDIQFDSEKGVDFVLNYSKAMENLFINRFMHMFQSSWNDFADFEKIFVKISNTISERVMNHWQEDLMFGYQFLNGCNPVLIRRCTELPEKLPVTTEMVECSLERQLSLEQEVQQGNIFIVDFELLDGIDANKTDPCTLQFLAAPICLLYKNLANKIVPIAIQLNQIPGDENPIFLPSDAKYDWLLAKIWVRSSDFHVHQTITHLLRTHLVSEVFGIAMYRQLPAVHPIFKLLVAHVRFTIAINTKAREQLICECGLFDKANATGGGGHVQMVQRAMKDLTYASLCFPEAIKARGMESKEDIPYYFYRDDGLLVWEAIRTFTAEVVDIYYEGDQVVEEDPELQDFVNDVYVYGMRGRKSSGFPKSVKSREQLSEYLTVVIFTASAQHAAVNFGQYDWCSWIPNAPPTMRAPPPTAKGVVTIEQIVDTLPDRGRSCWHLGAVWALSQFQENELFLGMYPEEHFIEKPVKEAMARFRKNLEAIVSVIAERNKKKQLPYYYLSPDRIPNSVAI

In the case of CCCCCCCCCCCCCCCC[N+](C)(C)[BH2-]C(=O)O [Compound 8], the “reduction in induced edema in rats” value ([1]; 8 mg/kg x 2) was “at least 40%”, the “Rat Inflammatory” value [1] was 59 % of control and the “Mice Writhing Reflex” value [2] was 16 % of control. The “reduction of the reflex action” value [2] was 80%, the “Mice Tail Flick” value [3] was 167 % of control and the “tail flick assay time” value [3] was “increased”. The “pleurisy edema in rats” value [4] was “reduced significantly”, the “Rat Pleurisy” value [4] was 19 % of control and the “activity in chronic arthritis screen” value ([5]; 8 mg/kg/day) was “significantly active”. The “Rat Chronic Arthritis” value [5] was 40 % of control, the pIC50 [6] was 6.03 and the pIC50 [7] was 5.14. The pIC50 [8] was 5.01, the pIC50 [9] was 5.90 and the pIC50 [10] was 5.74. It also gave a pIC50 [11] of 5.18, a pIC50 [12] of 5.18 and a pIC50 [13] of 5.02. It also gave a pIC50 [14] of 5.59, a pIC50 [15] of 5.17 and a pIC50 [16] of 5.61. For the same molecule, the pIC50 [17] was 5.06 and the pIC50 [18] was 5.82.
In the case of O=C(O)[BH2-][P+](c1ccccc1)(c1ccccc1)c1ccccc1 [Compound 12], the “Rat Inflammatory” value [1] was 61 % of control, the “Mice Writhing Reflex” value [2] was 19 % of control and the “reduction of the reflex action” value [2] was 80%. The “Mice Tail Flick” value [3] was 197 % of control, the “tail flick assay time” value [3] was “increased” and the “pleurisy edema in rats” value [4] was “reduced significantly”. The “Rat Pleurisy” value [4] was 28 % of control, the “activity in chronic arthritis screen” value ([5]; 8 mg/kg/day) was “significantly active” and the “Rat Chronic Arthritis” value [5] was 49 % of control. For the same molecule, the pIC50 [6] was 5.97, the pIC50 [7] was 5.26 and the pIC50 [8] was 5.07. For the same molecule, the pIC50 [9] was 5.75, the pIC50 [10] was 5.52 and the pIC50 [11] was 5.25. It also gave a pIC50 [12] of 5.24, a pIC50 [13] of 5.05 and a pIC50 [14] of 5.45. The pIC50 [15] was 5.26, the pIC50 [16] was 5.12 and the pIC50 [17] was 5.01. The pIC50 [18] was 5.32.
C[N+](C)(C)[BH2-]C#N [Compound 34] was tested, and the “Rat Inflammatory” value [1] was 65 % of control, the “Mice Writhing Reflex” value [2] was 18 % of control and the “reduction of the reflex action” value [2] was 80%. The “pleurisy edema in rats” value [4] was “reduced significantly”, the “Rat Pleurisy” value [4] was 65 % of control and the reduction of pannus ([5]; 8 mg/kg/day) was “greater than 75%”. For the same molecule, the “Rat Chronic Arthritis” value [5] was 4 % of control, the pIC50 [6] was 5.98 and the pIC50 [7] was 5.20. The pIC50 [8] was 5.03, the pIC50 [9] was 5.85 and the pIC50 [10] was 5.87. The pIC50 [11] was 5.58, the pIC50 [12] was 5.26 and the pIC50 [13] was 5.05. The pIC50 [14] was 5.23, the pIC50 [15] was 5.37 and the pIC50 [16] was 5.23. For the same molecule, the pIC50 [17] was 5.09 and the pIC50 [18] was 5.19.
